Laboratory results reported in publication PMC6651613, “Identification and Characterization of trans-Isopentenyl Diphosphate Synthases Involved in Herbivory-Induced Volatile Terpene Formation in Populus trichocarpa” (Molecules, 2019).

Experiments:
Assay in all cases: LC-MS/MS product analysis
Type in all cases: biochemical
Details in all cases: 50 uM IPP and 50 uM DMAPP, 10 mM MgCl2, 0.1 mM MnCl2, pH 7.2, 30 °C, 1 h
PtGPPS1.LSU = target: T1, PtGPPS1.LSU (Populus trichocarpa, UniProt A0A514TNQ6)
T1 construct: N-terminally truncated ORF (delta71, signal peptide removed), C-terminal His tag (pASK-IBA33+), E. coli TOP10, Ni-NTA purified; cloning primer encodes MPTFDFKSY

PtFPPS1 = target: T2, PtFPPS1 (Populus trichocarpa, UniProt A0A514TNK7)
T2 construct: full-length ORF, N-terminal His tag (pASK-IBA37+), E. coli TOP10, Ni-NTA purified; cloning primer encodes MADLKSTF
T2 sequence (A0A514TNK7 1-342): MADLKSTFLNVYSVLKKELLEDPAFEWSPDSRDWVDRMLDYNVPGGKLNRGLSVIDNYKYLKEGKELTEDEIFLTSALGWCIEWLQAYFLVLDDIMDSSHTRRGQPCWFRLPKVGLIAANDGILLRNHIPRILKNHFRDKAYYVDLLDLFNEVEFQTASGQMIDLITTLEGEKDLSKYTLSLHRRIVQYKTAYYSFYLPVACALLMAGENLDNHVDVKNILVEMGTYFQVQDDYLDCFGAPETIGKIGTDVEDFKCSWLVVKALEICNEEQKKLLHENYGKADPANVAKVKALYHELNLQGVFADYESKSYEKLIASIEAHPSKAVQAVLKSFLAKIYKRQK

PtGPPS2.LSU = target: T3, PtGPPS2.LSU (Populus trichocarpa, UniProt A0A514TNS4)
T3 construct: N-terminally truncated ORF (delta72, signal peptide removed), C-terminal His tag (pASK-IBA33+), E. coli TOP10, Ni-NTA purified; cloning primer encodes MPTFDFKSY

[1] = target: T4, PtGPPS1.LSU + PtGPPS.SSU1 (Populus trichocarpa, UniProt A0A514TNQ6)
T4 construct: equal amounts of separately purified LSU (delta71) and SSU1 (delta41) mixed; C-terminal His tags, E. coli TOP10; heterodimer proposed, not isolated; with Geranyl diphosphate synthase small subunit 1

[2] = target: T5, PtGPPS2.LSU + PtGPPS.SSU1 (Populus trichocarpa, UniProt A0A514TNS4)
T5 construct: separately purified LSU (delta72) and SSU1 (delta41) mixed; C-terminal His tags, E. coli TOP10; heterodimer proposed, not isolated; with Geranyl diphosphate synthase small subunit 1
T5 sequence (A0A514TNS4 71-366): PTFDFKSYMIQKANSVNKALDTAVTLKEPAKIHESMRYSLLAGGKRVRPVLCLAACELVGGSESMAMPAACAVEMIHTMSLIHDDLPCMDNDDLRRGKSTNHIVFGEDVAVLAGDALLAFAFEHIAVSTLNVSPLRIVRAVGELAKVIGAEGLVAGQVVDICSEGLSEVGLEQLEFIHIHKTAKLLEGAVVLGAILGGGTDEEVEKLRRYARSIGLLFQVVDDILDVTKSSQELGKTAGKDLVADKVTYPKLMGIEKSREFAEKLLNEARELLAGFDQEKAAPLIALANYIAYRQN
T5 sequence (A0A514TNK9 42-312 partner): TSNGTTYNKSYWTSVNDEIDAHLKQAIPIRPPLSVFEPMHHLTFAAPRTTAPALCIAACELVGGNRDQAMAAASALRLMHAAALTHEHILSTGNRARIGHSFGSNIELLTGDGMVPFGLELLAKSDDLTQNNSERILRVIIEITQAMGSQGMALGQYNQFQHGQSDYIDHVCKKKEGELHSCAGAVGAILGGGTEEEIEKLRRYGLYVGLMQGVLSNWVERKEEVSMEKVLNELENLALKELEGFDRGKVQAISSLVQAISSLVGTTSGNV

T1 sequence (A0A514TNQ6 70-365): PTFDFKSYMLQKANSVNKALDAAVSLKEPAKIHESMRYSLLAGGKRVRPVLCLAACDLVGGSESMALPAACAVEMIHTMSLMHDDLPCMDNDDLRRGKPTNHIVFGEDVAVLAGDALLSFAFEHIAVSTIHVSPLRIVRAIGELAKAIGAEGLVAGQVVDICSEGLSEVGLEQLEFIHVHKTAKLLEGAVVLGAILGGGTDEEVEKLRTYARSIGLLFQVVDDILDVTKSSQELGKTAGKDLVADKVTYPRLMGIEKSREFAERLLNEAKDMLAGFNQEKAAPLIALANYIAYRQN
T4 sequence (A0A514TNQ6 70-365): as above
T4 sequence (A0A514TNK9 42-312 partner): as the sequence (A0A514TNK9 42-312 partner) above
T3 sequence (A0A514TNS4 71-366): as the sequence (A0A514TNS4 71-366) above

SMILES	LC-MS/MS product analysis (PtGPPS1.LSU)	LC-MS/MS product analysis (PtFPPS1)	LC-MS/MS product analysis (PtGPPS2.LSU)	LC-MS/MS product analysis [1]	LC-MS/MS product analysis [2]
CC(C)=CCOP(=O)(O)OP(=O)(O)O [DMAPP]	produced GPP and GGPP when tested with IPP and DMAPP as substrates	PtFPPS1 catalyzes the condensation of IPP and DMAPP to FPP and traces of GGPP	produced GPP and GGPP when tested with IPP and DMAPP as substrates	incubated with IPP and DMAPP either in the presence (black bars) or absence	incubated with IPP and DMAPP either in the presence (black bars) or absence
C=C(C)CCOP(=O)(O)OP(=O)(O)O [IPP]	produced GPP and GGPP when tested with IPP and DMAPP as substrates	PtFPPS1 catalyzes the condensation of IPP and DMAPP to FPP and traces of GGPP	produced GPP and GGPP when tested with IPP and DMAPP as substrates	incubated with IPP and DMAPP either in the presence (black bars) or absence	incubated with IPP and DMAPP either in the presence (black bars) or absence
